# In patent publication US5733924A, “DC 107 derivatives and treatment methods” (Kyowa Hakko Kogyo Co., Ltd., priority 1995, dated 1998):
# Like-named read-outs stand apart in the source and are kept apart here.
# Columns and labels:
# [1] = test system: Staphylococcus aureus ATCC 6538P; experiment: Antibacterial activity, agar dilution method (MIC); format: cell-based; conditions: for MIC: ATCC6538P
# Excerpt: (§1) The antibacterial activity as determined by the agar dilution method using a medium prepared by dissolving 3 g of Bacto-Tryptone (a product of Difco Laboratories), 3 g of a meat extract, 1 g of an yeast extract, 1 g of glucose and 16 g of agar in one liter of water (pH 7).
# SA: Staphylococcus aureus ATCC 6538P
# [2] = test system: Enterococcus faecium ATCC 10541; experiment: Antibacterial activity, agar dilution method (MIC); format: cell-based
# Excerpt: as §1
# EF: Enterococcus faecium ATCC 10541
# P388 Leukemia = experiment: Antitumor activity against P388 leukemia in mice (increased life span); format: in vivo, CDF1 mice; conditions: Mus musculus, P388, ip, 720 h; 16 mg/kg, single i.p. 24 hours after transplantation, CDF1 mice, 30 days observation
# Description: Ascites were collected from the abdominal cavity of P388 ascites tumor-bearing cancer mice (DBA/2) on the 7th day after transplantation. A number of P388 cells in the ascites was counted, and a tumor cell floating liquid of 5×10^6 cells/ml was prepared using a physiological saline solution. Then, 0.2 ml of the solution containing 1×10^6 cells was transplanted into the abdominal cavity of CDF1 mice having a body weight of from 20 to 25 g.
# The effect of the test compound was determined in terms of the ratio of average survival days of the group administered with the test compound to average survival days of the control group (non-medicated group) (i.e., an increased life span, ILS%).
# [3] = test system: Bacillus subtilis No. 10707; experiment: Antibacterial activity, agar dilution method (MIC); format: cell-based
# Excerpt: as §1
# BS: Bacillus subtilis No. 10707
# [4] = test system: Klebsiella pneumoniae ATCC 10031; experiment: Antibacterial activity, agar dilution method (MIC); format: cell-based
# Excerpt: as §1
# KP: Klebsiella pneumoniae ATCC 10031
# Escherichia coli ATCC 26 = experiment: Antibacterial activity, agar dilution method (MIC); format: cell-based
# Excerpt: as §1
# EC: Escherichia coli ATCC 26
# [5] = SA: Staphylococcus aureus ATCC 6538P, agar dilution, pH 7, read-out: MIC (minimum growth inhibitory concentration)
# [6] = ATCC10541, EF: Enterococcus faecium ATCC 10541, pH 7, read-out: MIC (minimum growth inhibitory concentration)
# [7] = BS: Bacillus subtilis No. 10707, pH 7, read-out: MIC (minimum growth inhibitory concentration)
# [8] = ATCC10031, KP: Klebsiella pneumoniae ATCC 10031, agar dilution, pH 7, read-out: MIC (minimum growth inhibitory concentration)
# [9] = ATCC26, EC: Escherichia coli ATCC 26, pH 7, read-out: MIC (minimum growth inhibitory concentration)
# [10] = Staphylococcus aureus, pH 7, read-out: MIC (minimum growth inhibitory concentration)
# [11] = Enterococcus faecium, ATCC10541, pH 7, read-out: MIC (minimum growth inhibitory concentration), EF: Enterococcus faecium ATCC 10541
# [12] = Escherichia coli, ATCC26, pH 7, read-out: MIC (minimum growth inhibitory concentration), EC: Escherichia coli ATCC 26
# [13] = Bacillus subtilis, NO.10707, pH 7, read-out: MIC (minimum growth inhibitory concentration), BS: Bacillus subtilis No. 10707
SMILES,"MIC [1, 5]","MIC [2, 6]","MIC [3, 7]","MIC [4, 8]",MIC (Escherichia coli ATCC 26; [9]),also measured
C/C1=C\C(OC(=O)OCC2c3ccccc3-c3ccccc32)C(=O)/C=C/C=C\c2csc(n2)C(C)NC(=O)CC2(CC1)[S+]([O-])SC(=O)C2(C)O (stereo not drawn) [Compound 15],0.16 µg/mL,0.081 µg/mL,0.041 µg/mL,,,ILS at 16 mg/kg (P388 Leukemia): 63%
COC1(OC2/C=C(\C)CCC3(CC(=O)NC(C)c4nc(cs4)/C=C\C=C\C2=O)[S+]([O-])SC(=O)C3(C)O)CCOCC1 (stereo not drawn) [Compound 90],0.041 µg/mL,0.041 µg/mL,0.02 µg/mL,0.16 µg/mL,0.65 µg/mL,
COC1(OC2C=C(C)CCC3(C(C)(O)C(=O)SCc4oc(=O)oc4C)CC(=O)N(C(C)c4nc(cs4)C=CC=CC2=O)[S+]3[O-])CCSCC1 (stereo not drawn) [Compound 127],0.65 µg/mL,0.65 µg/mL,0.041 µg/mL,2.6 µg/mL,,ILS at 16 mg/kg (P388 Leukemia): 52%
C/C1=C\C(OC(=O)c2ccc(F)cc2)C(=O)/C=C/C=C\c2csc(n2)C(C)NC(=O)CC2(CC1)[S+]([O-])SC(=O)C2(C)O (stereo not drawn) [Compound 8],0.081 µg/mL,0.081 µg/mL,0.02 µg/mL,1.3 µg/mL,1.3 µg/mL,
C/C1=C\C(O)C(=NOCc2ccccc2)/C=C/C=C\c2csc(n2)C(C)NC(=O)CC2(CC1)[S+]([O-])SC(=O)C2(C)O (stereo not drawn) [Compound 69],0.057 µg/mL,0.028 µg/mL,0.028 µg/mL,0.23 µg/mL,1.8 µg/mL,
C/C1=C\C(OCOCc2ccccc2)C(=O)/C=C/C=C\c2csc(n2)C(C)N2C(=O)CC(C(C)(O)C(=O)SCc3oc(=O)oc3C)(CC1)[S+]2[O-] (stereo not drawn) [Compound 61],,,,,,"MIC [1, 10]: 0.65 µg/mL; MIC [2, 11]: 0.65 µg/mL; MIC (Escherichia coli ATCC 26; [12]): 2.6 µg/mL; MIC [3, 13]: 0.081 µg/mL"
CCCCCCCC(=O)OCSC(=O)C(C)(O)C12CC/C(C)=C/C(O)C(=O)/C=C/C=C\c3csc(n3)C(C)N(C(=O)C1)[S+]2[O-] (stereo not drawn) [Compound 84],0.39 µg/mL,0.39 µg/mL,0.049 µg/mL,0.098 µg/mL,,
C/C1=C\C(OC2CCCCO2)C(=O)/C=C/C=C\c2csc(n2)C(C)NC(=O)CC2(CC1)[S+]([O-])SC(=O)C2(C)O (stereo not drawn) [Compound 18],,,,,,"MIC [1, 10]: 0.16 µg/mL; MIC ([4]; Klebsiella pneumoniae, ATCC10031, pH 7, read-out: MIC (minimum growth inhibitory concentration)): 2.6 µg/mL; MIC [2, 11]: 0.16 µg/mL; MIC (Escherichia coli ATCC 26; [12]): 1.3 µg/mL; MIC [3, 13]: 0.041 µg/mL"
COCOC1/C=C(\C)CCC2(C(C)(O)C(=O)SCc3oc(=O)oc3C)CC(=O)N(C(C)c3nc(cs3)/C=C\C=C\C1=O)[S+]2[O-] (stereo not drawn) [Compound 58],0.72 µg/mL,0.72 µg/mL,0.72 µg/mL,2.9 µg/mL,46 µg/mL,
C/C1=C\C(OC(=O)CNC(=O)[C@H](CO)NC(=O)OCc2ccccc2)C(=O)/C=C/C=C\c2csc(n2)C(C)NC(=O)CC2(CC1)[S+]([O-])SC(=O)C2(C)O (stereo partly drawn) [Compound 116],0.033 µg/mL,0.033 µg/mL,0.033 µg/mL,0.033 µg/mL,4.2 µg/mL,
COC1(OC2C=C(C)CCC3(C(C)(O)C(=O)SCc4oc(=O)oc4C)CC(=O)N(C(C)c4nc(cs4)C=CC=CC2=O)[S+]3[O-])CCCCC1 (stereo not drawn) [Compound 126],1 µg/mL,1 µg/mL,0.033 µg/mL,4.2 µg/mL,,
CC(=O)OC1/C=C(\C)CCC2(CC(=O)NC(C)c3nc(cs3)/C=C\C=C\C1=O)[S+]([O-])SC(=O)C2(C)O (stereo not drawn) [Compound 1],0.52 µg/mL,0.52 µg/mL,0.26 µg/mL,17 µg/mL,,
"C/C1=C\C(OC2CCCCO2)C(=O)/C=C/C=C\c2csc(n2)C(C)N2C(=O)CC(C(C)(O)C(=O)SCc3oc(=O)oc3C)(CC1)[S+]2[O-] (single isomer, unassigned) [Compound 64]",,,,,,"MIC (minimum growth inhibitory concentration) ([1]; SA: Staphylococcus aureus ATCC 6538P, agar dilution, pH 7): 0.65 µg/mL; MIC (minimum growth inhibitory concentration) ([4]; KP: Klebsiella pneumoniae ATCC 10031, agar dilution, pH 7): 5.2 µg/mL; MIC (minimum growth inhibitory concentration) ([2]; EF: Enterococcus faecium ATCC 10541, pH 7): 1.3 µg/mL; MIC (minimum growth inhibitory concentration) (Escherichia coli ATCC 26; EC: Escherichia coli ATCC 26, pH 7): 5.2 µg/mL; MIC (minimum growth inhibitory concentration) ([3]; BS: Bacillus subtilis No. 10707, pH 7): 0.16 µg/mL"
C/C1=C\C(O)C(=O)/C=C/C=C\c2csc(n2)C(C)N2C(=O)CC(C(C)(O)C(=O)SCOC(=O)C3CCCCC3)(CC1)[S+]2[O-] (stereo not drawn) [Compound 80],,,,,,"MIC [1, 10]: 2.6 µg/mL; MIC [2, 11]: 5.2 µg/mL; MIC [3, 13]: 0.041 µg/mL"
